{"source": "patent US9951335B2", "about": "“Compositions and methods for treating otitis media and other conditions with inhibitors of CYLD” (Georgia State University Research Foundation, Inc., priority 2012, dated 2018)", "key": {"[1]": {"system": "TGF-β-signalling", "test": "TGF-β-induced SBE-promoter activity in mouse MEF cells", "format": "cell-based", "conditions": "Cyld−/− MEFs pretreated with inhibitor", "description": "(§1) The expression plasmids Flag-WT-CYLD, HA-WT-CYLD, Flag-H/N-CYLD, HA-C/S-CYLD, Flag-WT-Smad3, C/A-TβRI, and the reporter plasmids SBE-Luc, PAI-1-Luc, and NF-κB-Luc were previously described. Flag-WT-Akt1, pRK5-HA-Ub WT, pRK5-HA-Ub K63, and pRK5-HA-Ub K48 were from Addgene, and K to R mutants of Akt were generated with WT-Akt1 using QuickChange XL Site-Directed Mutagenesis kit (Stratagene). All transient transfections were carried out using TransIT-LT1 reagent (Minis) or Lipofectamine (Invitrogen) according to manufacturers' instructions."}, "[2]": {"system": "Smad3", "test": "Smad3 protein expression in cells incubated with Akt or PI3K inhibitor (immunoblotting)", "format": "cell-based, mouse", "conditions": "20 μM; MEF cells from Cyld+/+ and Cyld−/− mice (FIG. 5d), cells (FIG. 5e)", "description": "FIG. 5 illustrates that CYLD decreases Smad3 stability by inhibiting Akt. (a) MEF cells from Cyld+/+ and Cyld−/− mice were transfected with siCon or siAkt1/2 and analysed by immunoblotting with the indicated antibodies. (b) SBE-promoter activity was determined in siCYLD-transfected A549 cells with or without siAkt co-transfection and stimulated with TGF-β. (c) SBE-promoter activity was determined in MEFs from Cyld+/+ and Cyld−/− mice pretreated with Akt inhibitor and stimulated with TGF-β. (d) MEF cells from Cyld+/+ and Cyld−/− mice were incubated with Akt inhibitor (20 μM), and cell lysates were analysed by immunoblotting with the indicated antibodies. (e) Cells were incubated with Akt inhibitor (20 μM) or LY294002 (20 μM), and cell lysates were analysed by immunoblotting with the indicated antibodies. (f) Lysates from cells transfected with HA-CYLD and Flag-Akt were immunoprecipitated with anti-CYLD antibody (upper panel) or anti-Akt antibody (lower panel), and interacting proteins were analysed by immunoblotting. […]\nWestern blot, immunoprecipitation and ubiquitination experiments were performed as follows. […] Immunoprecipitates were then suspended in a sample buffer, separated on 8% SDS-PAGE, transferred to polyvinylidine difluoride membrane, and detected by immunoblot analysis, as described above. […]"}, "[3]": {"system": "PAI-1", "test": "TGF-β-induced PAI-1 expression (promoter activity, mRNA) in human cells", "format": "cell-based", "conditions": "WT-CYLD-transfected cells pre-treated with MG-132; mRNA", "description": "Total RNA was isolated using TRIzol reagent following the manufacturer's instructions. Synthesis of complementary DNA from total RNA was performed with MultiScribe reverse transcriptase. Real-time quantitative PCR was performed using an ABI 7500 Sequence Detection System (Applied Biosystems). Relative quantities of mRNAs were calculated using the comparative threshold cycle method and normalized using human and mouse glyceraldehyde-3-phosphate dehydrogenase as an endogenous control. The primer sequences for mouse COL1A2, COL3A1, CTGF and PAI-1, and human PAI-1, CHIP, and Smad3 are as follows. Mouse CTGF: 5′-[…]-3′ (SEQ ID NO:1) and 5′-[…]-3′ (SEQ ID NO:2); mouse COL1A2: 5′-[…]-3′ (SEQ ID NO:3) and 5′-[…]-3′ (SEQ ID NO:4); mouse COL3A1: 5′-[…]-3′ (SEQ ID NO:5) and 5′-[…]-3′ (SEQ ID NO:6); mouse PAI-1: 5′-[…]-3′ (SEQ ID NO:7) and 5′-[…]-3′ (SEQ ID NO:8); human PAI-1: 5′-[…]-3′ (SEQ ID NO:9) and 5′-[…]-3′ (SEQ ID NO:10); human CHIP: 5′-[…]-3′ (SEQ ID NO:11) and 5′-[…]-3′ (SEQ ID NO:12).\nas §1"}, "[4]": {"system": "Smad3", "test": "Smad3 protein level in transfected cells by immunoblotting", "format": "cell-based, human", "description": "Western blot, immunoprecipitation and ubiquitination experiments were performed as follows. Western blots were performed using whole-cell extracts, separated on 8 or 10% SDS-PAGE gels, and transferred to polyvinylidine di& uoride membranes. The membrane was blocked with a solution of PBS containing 0.1% Tween 20 (PBS-T) and 5% BSA. The membrane was then incubated in a 1:2,000 dilution of a primary antibody in 5% BSA-PBS-T. After three washes in PBS-T, the membrane was incubated with 1:5,000 dilution of the corresponding secondary antibody in 3% non-fact skim milk-PBS-T. Respective proteins were visualized by using enhanced chemiluminescence detection reagents, according to the manufacturer's instructions. To conduct immunoprecipitation analysis, cell lysates were incubated with 1 μg of primary antibodies overnight, at 4° C., followed by 2-h incubation with protein A/G-agarose beads (Invitrogen). Immunoprecipitates were then suspended in a sample buffer, separated on 8% SDS-PAGE, transferred to polyvinylidine difluoride membrane, and detected by immunoblot analysis, as described above. […]"}, "[5]": {"system": "CYLD", "test": "NTHi-induced up-regulation of CYLD in epithelial cells (Q-PCR, Western blot)", "format": "cell-based, human", "conditions": "for NTHi-induced up-regulation of CYLD at both mRNA and protein levels: HMEEC, A549 and primary NHBE cells, conventional and air-liquid-interface culture", "text": "(§2) Phosphodiesterases (PDEs) have been recognized as therapeutic targets. […] For this reason, we initially sought to determine if PDEs act as key negative regulator for CYLD."}, "[6]": {"system": "lung fibrosis", "test": "S. pneumoniae-induced lung fibrosis in Cyld−/− mice (H&E, Masson's trichrome)", "format": "in vivo, mouse", "description": "Cyld−/− mice were generated by homologous recombination as follows. The targeting construct was designed to disrupt the exons 2 and 3 with an IRES-LacZ/MC1-Neo cassette. The targeting plasmid was linearized and transfected into embryonic stem cells of a 129/S. Homologously recombined embryonic stem cells were injected into blastocysts that were subsequently transferred to foster mothers, to generate chimeric progeny. Generated chimeric progeny were backcrossed to C57BL/6J, and germline transmission was confirmed by PCR with tail DNA. Homozygous knockout of Cyld gene was confirmed by mRNA detection by RT-PCR and CYLD protein detection by western blot analysis in MEF cells and lung tissues. For S. pneumoniae-induced severe infections in WT and Cyld−/− mice, anaesthetized mice were intratracheally (i.t.) inoculated with live S. pneumoniae (5×10^7 CFU per mouse). Surviving mice from severe pneumonia were then sacrificed 2 weeks post S. pneumoniae infection for histopathological analysis. For TGF-β inoculation, anesthetized WT and Cyld−/− mice were i.t. inoculated with TGF-β (25-100 ng per mouse) for 6 hours, and lung tissues were then subjected to total mRNA and protein extraction. […]"}, "[7]": {"system": "NTHi-induced inflammation", "test": "NTHi-induced inflammation in epithelial cells (NF-κB activation, IL-1β, IL-8, TNF-α; Q-PCR, ELISA)", "format": "cell-based, human", "conditions": "for NTHi-induced inflammatory response / concentration at which NTHi-induced inflammatory response was suppressed: HMEEC cell; for NTHi-induced inflammatory response: roflumilast at 1 μM", "text": "We next determined if PDE4 inhibition suppresses NTHi-induced inflammation. […] Despite showing that inhibiting PDE4 enhanced up-regulation of CYLD and suppressed NTHi-induced inflammation, it was still unclear whether inhibiting PDE4 suppressed inflammation by up-regulating CYLD or by inhibiting a positive regulator of inflammation (e.g., IKKβ)."}, "[8]": {"system": "PDE4B / PDE4D", "conditions": "known property, cited from earlier work"}, "[9]": {"system": "NF-κB", "test": "NF-κB activation induced by overexpressing constitutively active IKKβ or wild-type p65", "format": "cell-based", "text": "We next determined if PDE4 inhibitors may also suppress inflammation via directly inhibiting IKKβ, the key positive regulator of NF-κB-dependent inflammation."}, "[10]": {"system": "NTHi-induced inflammation", "test": "NTHi-induced middle ear inflammation in mouse OM model (cytokines, otoscopy, histopathology)", "format": "in vivo"}, "[11]": {"system": "CYLD", "test": "CYLD up-regulation in the middle ear of mouse OM model (Q-PCR, IF staining)", "format": "in vivo", "text": "as §2\nOtotopical administration works effectively when the eardrum is perforated either pathologically or surgically by tympanostomy tube insertion. Thus, we first determined if ototopical administration of rolipram up-regulates CYLD and suppresses inflammation in the middle ear of mice post NTHi inoculation."}, "[12]": {"conditions": "ototopical pre- and post-inoculation administration, mouse OM model"}}, "note": "Like-named read-outs stand apart in the source and are kept apart here. Residues, ends and D or L forms follow the SMILES beside them. *: point of attachment. Cbz = O=C(OCc1ccccc1)*", "data": [{"smiles": "CCCCCCCCCCCCCCCCCCOCC(COC(=O)OC1C(O)C(O)C(O)C(CO)C1O)OC", "note": "[Akt inhibitor, 1L6-Hydroxymethyl-chiro-inositol-2(R)-2-O-methyl-3-O-octadecyl-sn-glycerocarbonate]", "values": [{"measurement": "enhanced TGF-β-induced SBE promoter activity", "setting": "[1]", "value": "inhibited"}, {"measurement": "Smad3 protein expression", "setting": "[2]", "value": "markedly reduced"}]}, {"smiles": "CC(C)C[C@@H](C=O)NC(=O)[C@H](CC(C)C)NC(=O)[C@H](CC(C)C)NC(=O)OCc1ccccc1", "note": "[MG132] (Cbz-Leu-Leu-Leu-aldehyde)", "values": [{"measurement": "WT-CYLD-induced decrease in TGF-β-induced PAI-1 expression", "setting": "[3]", "value": "reversed"}, {"measurement": "WT-CYLD-induced decrease in Smad3 protein level", "setting": "[4]; WT-CYLD-transfected cells, 20 μM", "value": "reversed"}]}, {"smiles": "CCCCOc1cc(CC2CNC(=O)N2)ccc1OC", "note": "(centres unmarked) [Ro20-1724]", "values": [{"measurement": "NTHi-induced up-regulation of CYLD at both mRNA and protein levels", "setting": "[5]", "value": "markedly enhanced"}]}, {"smiles": "C[S+]([O-])c1ccc(-c2nc(-c3ccc(F)cc3)c(-c3ccncc3)[nH]2)cc1", "note": "(centres unmarked) [SB203580]", "values": [{"measurement": "lung fibrosis in Cyld−/− mice", "setting": "[6]; S. pneumoniae infection, 20 mg kg−1 intraperitoneal 1-2 hours before inoculation", "value": "did not affect"}]}, {"smiles": "Cn1cc(C2=C(c3ccc(Cl)cc3Cl)C(=O)NC2=O)c2ccccc21", "note": "[SB216763]", "values": [{"measurement": "WT-CYLD-induced Smad3 decrease", "setting": "[4]; A549 cells, 5 μM for 12 h", "value": "reversed"}]}, {"smiles": "NC(=O)c1ccc(-c2nc(-c3ccccn3)c(-c3ccc4c(c3)OCO4)[nH]2)cc1", "note": "[SB431542]", "values": [{"measurement": "lung fibrosis in S. pneumoniae-inoculated Cyld−/− lungs", "setting": "[6]; 10 mg per kg body weight intraperitoneal, 2-weeks post infection", "value": "inhibited"}]}, {"smiles": "COc1ccc([C@]2(C#N)CC[C@@H](C(=O)O)CC2)cc1OC1CCCC1", "note": "[cilomilast]", "values": [{"measurement": "NTHi-induced inflammatory response", "setting": "[7]", "value": "no significant inhibitory effect"}, {"measurement": "PDE4 subfamily selectivity (PDE4B versus PDE4D)", "setting": "[8]", "value": "more PDE4D selective"}]}, {"smiles": "O=C(Nc1c(Cl)cncc1Cl)c1ccc(OC(F)F)c(OCC2CC2)c1", "note": "[roflumilast]", "values": [{"measurement": "concentration at which NTHi-induced inflammatory response was suppressed", "setting": "[7]", "value": 1, "unit": "µM"}, {"measurement": "NTHi-induced inflammatory response", "setting": "[7]", "value": "markedly suppressed"}, {"measurement": "CYLD expression", "setting": "[5]", "value": "enhanced"}, {"measurement": "PDE4 subfamily selectivity (PDE4B versus PDE4D)", "setting": "[8]", "value": "more selective for PDE4B than for PDE4D"}, {"measurement": "PDE4 subfamily selectivity (PDE4B versus PDE4D)", "setting": "[8]; listed as Roflumilast", "value": "more specific inhibitor for PDE4B"}]}, {"smiles": "COc1ccc(C2CNC(=O)C2)cc1OC1CCCC1", "note": "(centres unmarked) [rolipram]", "values": [{"measurement": "activation of NF-κB induced by overexpressing constitutively active IKKβ or wild-type p65", "setting": "[9]", "value": "did not significantly inhibit"}, {"measurement": "NTHi-induced otoscopic pathological changes of OM (congestion and swelling of tympanic membranes, mucous effusion)", "setting": "[10]; i.p. administration, NTHi-inoculated mice, otoscopic examination", "value": "inhibited"}, {"measurement": "middle ear mucosal thickening and PMN infiltration in the middle ear mucosa", "setting": "[10]; i.p. administration, histopathologic analysis", "value": "inhibited"}, {"measurement": "NTHi-induced up-regulation of IL-1β and MIP-2, middle ear mucosal thickening and PMN infiltration", "setting": "[10]; i.p. administration, mouse OM model, CYLD-deficiency context", "value": "no longer inhibited"}, {"measurement": "NTHi-induced up-regulation of the proinflammatory mediators in the middle ear of mouse", "setting": "[10]; mouse", "value": "inhibited"}, {"measurement": "middle ear inflammation", "setting": "[10]; [12]", "value": "suppressed"}, {"measurement": "NTHi-induced mRNA expression of these cytokines in CYLD-deficient cells", "setting": "[7]; CYLD-deficient cells", "value": "failed to inhibit"}, {"measurement": "concentration at which NTHi-induced inflammatory response was suppressed", "setting": "[7]", "value": 10, "unit": "µM"}, {"measurement": "NTHi-induced NF-κB activation", "setting": "[7]; HMEEC, A549, primary NHBE cells", "value": "potently inhibited"}, {"measurement": "NTHi-induced up-regulation of IL-1β, IL-8 and TNF-α in CYLD-depleted cells", "setting": "[7]; HMEEC, A549, primary NHBE cells, CYLD depleted with siRNA CYLD", "value": "no longer inhibited"}, {"measurement": "NTHi-induced up-regulation of pro-inflammatory mediators IL-1β, IL-8 and TNF-α at the mRNA and protein levels", "setting": "[7]; HMEEC, A549, primary NHBE cells, Q-PCR and ELISA", "value": "potently inhibited"}, {"measurement": "up-regulation of CYLD at the mRNA level and protein level in the middle ear mucosa", "setting": "[11]; mouse model of OM, Q-PCR and IF staining", "value": "enhanced"}, {"measurement": "CYLD expression in the middle ear", "setting": "[11]; [12]", "value": "up-regulated"}, {"measurement": "NTHi-induced up-regulation of CYLD at both mRNA and protein levels", "setting": "[5]", "value": "markedly enhanced"}]}]}
